Test results as given in patent US4570005A, “Process for the preparation of 2-arylpropyl ether or thioether derivatives” (priority 1980, dated 1986).
Like-named read-outs stand apart in the source and are kept apart here.

How the values were obtained:
diamond back moth = test: Test 4: Effect on Diamond Back Moth; type: in vivo; details: Plutella, third-instar larvae, 24 hours, read-out: Mortality (%)
Procedure, shortened: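 Compound formulated as an emulsifiable concentrate, diluted in water to 100 or 20 ppm and sprayed at 3 ml per cup onto cabbage leaves holding 10 third-instar larvae. Mortality counted after 24 hours; mean of three cups.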

tobacco cutworm [1] = test: Test 2: Tobacco Cutworm Larva Dipping Test, mortality after 24 hours; type: in vivo; details: 24 hours
Procedure, shortened: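 Second- and fifth-instar larvae dipped 5 s in a water dilution of an emulsifiable concentrate at 100 or 20 ppm, blotted, then held on artificial diet at 25° C. Dead and living larvae counted after 24 hours; mortality averaged over three cups.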

green peach aphid = test: Test 5: Effect on Green Peach Aphid; type: in vivo; details: Myzus persicae; 100 ppm; mortality class; 24 hours; read-out: Insecticidal Activity
Experimental: (§1) To a mixture of 20 parts of the compound of the present invention and 20 parts of Sorpol SM-200 (registered tradename for the product supplied by Toho Chemical Industrial Co., Ltd.) was added 60 parts of xylol, and the mixture was suffciently blended. The obtained emulsifiable concentrate was diluted at a predetermined concentration with distilled water, and the obtained dilution was used.
Seedlings (having 3 to 4 leaves) of an eggplant grown on a pot were inoculated with green peach aphids and the insects were allowed to grow. The number of the insects was counted. A chemical dilution having a concentration of 100 ppm, prepared in the same manner as described in Test 1, was applied with a spray gun at a rate of 10 ml per pot. Then, the pot was placed in a glass green house. After 24 hours, the number of living insects was counted and the mortality was calculated.
The test was made on three pots, and the average value was calculated. In Table 6, mark "A" indicates a mortality higher than 95%, mark "B" indicates a mortality of 80 to 95%, mark "C" indicates a mortality of 50 to 80%, and mark "D" indicates a mortality lower than 50%.

two-spotted spider mite = test: Test 6: Effect on Two-Spotted Spider mite Adults; type: in vivo; details: Tetranychus urticae
Experimental: as §1
A kidney bean leaf disc perforated with a cork borer (15 mm in diameter) was placed on water-impregnated absorbent cotton (2 cm×2 cm), and 10 adults of two-spotted spider mite were set free. A chemical dilution having a concentration of 100 ppm was applied with an applicator in an amount of 3 ml.
The leaf disc-placed absorbent cotton was placed in a thermostat chamber maintained at 25° C. After 24 hours, the number of killed adults was counted and the mortality was calculated. The test was made on three leaf discs and the average value was calculated.

[2] = Test 9: Toxicity Test (acute oral toxicity, mice); details: mouse, in vivo, po
Experimental: A predetermined amount of a solution or suspension of a test compound in corn oil was orally administered to male mice having a body weight of 19 to 23 g (0.2 ml per 10 g of the body weight). After 7 days, the number of killed mice was counted and the influences on the mice were examined.

[3] = system: sensitive green rice leafhopper (collected at Chigasaki); test: whole plant or invertebrate; type: in vivo; details: Nephotettix cincticeps, read-out: Mortality (%), Green Rice Leafhopper Collected at Chigasaki
Procedure, shortened: (§2)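 Emulsifiable concentrate diluted to 100 or 20 ppm was sprayed, 3 ml per pot, onto hydroponic rice seedlings at 2–3 leaves. After air-drying, 10 female adults of the Nakagawara (resistant) or Chigasaki (sensitive) strain were released per caged pot. Mortality was counted at 24 h and averaged over three pots.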

[4] = system: resistant green rice leafhopper (collected at Nakagawara); test: Test 3: Effect on Resistant Green Rice Leafhopper (collected at Nakagawara); type: in vivo, Nephotettix cincticeps Uhler (Green rice leafhopper); details: Nephotettix cincticeps, read-out: Mortality (%), Green Rice Leafhopper Collected at Nakagawara
Procedure, shortened: as §2

Test 8: Fish Toxicity = type: in vivo; details: carp, water; concentration at which 1/2 of the test fishes were killed within 48 hours; read-out: Fish Toxicity, TLm48
Experimental: A water tank having a width of 60 cm, a length of 30 cm and a height of 40 cm was filled with water, and 10 yearling carps having a body length of about 5 cm were set free in the tank and adapted to the environment in the tank. A test compound was applied so that the concentration in water was 10, 1 or 0.1 ppm. After 48 hours, the numbers of killed and living carps were counted and the influences on the fishes were examined.

tobacco cutworm [5] = test: Test 1: Effect on Tobacco Cutworm (leaf immersion), mortality after 24 hours; type: in vivo; details: second-instar larvae, 25° C
Procedure, shortened: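 Sweet-potato leaves dipped 10 s in emulsifiable concentrate diluted to 100 or 20 ppm, air-dried, then exposed to second-instar larvae at 25 °C. Mortality counted after 24 h, averaged over three cups.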

German cockroach = test: Test 7: Effect on German Cockroach; type: in vivo; details: Blattella germanica
Procedure, shortened: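 Petri dish floors were treated with 50 or 10 mg/m2 of compound (diluted emulsifiable concentrate) and air-dried. Ten male adult German cockroaches per dish were held at 25° C. Agonized and dead insects were counted after 24 hours, averaging two dishes.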

[6] = fifth-instar larvae, read-out: Motality (%), Fifth-Instar Larvae
[7] = second-instar larvae, read-out: Motality (%), Second-Instar Larvae
[8] = 100 ppm, adults, 24 hours, 25° C, read-out: Mortality (%)
[9] = 20 ppm, sensitive female adults, 24 hours
[10] = 100 ppm, sensitive female adults, 24 hours
[11] = 10 mg/m^2, male adults, agonized and killed after 24 hours, read-out: Mortality (%)
[12] = 50 mg/m^2, male adults, agonized and killed after 24 hours, read-out: Mortality (%)

Structure (SMILES)	mortality at 20 ppm (diamond back moth) [%]	mortality at 100 ppm (diamond back moth) [%]	mortality at 100 ppm (two-spotted spider mite; [8]) [%]	LD50 at 168 h [2] [mg/kg]	mortality at 20 ppm [3, 9] [%]	mortality at 100 ppm [3, 10] [%]	mortality at 20 ppm ([4]; 24 h) [%]	mortality at 100 ppm ([4]; 24 h) [%]	LC50 at 48 h (Test 8: Fish Toxicity) [µg/mL]	mortality at 20 ppm (tobacco cutworm [5]) [%]	mortality at 100 ppm (tobacco cutworm [5]) [%]	further results
CC(C)C(COCc1cccc(Oc2ccccc2)c1)c1ccc(Cl)cc1 (stereo not shown) [Comparative Compound (b), reference compound]	10	30	20									mortality at 100 ppm (tobacco cutworm [1]; [6]): 0%; mortality at 100 ppm (tobacco cutworm [1]; [7]): 0%; mortality at 100 ppm (green peach aphid): < 50%
CC(C)(COCc1cccc(Oc2ccc(F)cc2)c1)c1ccc(F)cc1 [Compound 45]	100	100	100	> 500	100	100	100	100	> 1	100	100	mortality at 10 mg/m2 (German cockroach; [11]): 100%; mortality at 50 mg/m2 (German cockroach; [12]): 100%
CC(C)(COCc1cccc(Cc2ccccc2)c1)c1ccc(Cl)cc1 [Compound 35, 3-Benzylbenzyl 2-(4-chlorophenyl)-2-methylpropyl ether]			85	> 500	50	100	70	100	> 10			
CC(C)(COCc1cccc(Oc2cccc(Cl)c2)c1)c1ccc(OC(F)F)cc1 [Compound 25, 3-(3-Chlorophenoxy)benzyl 2-(4-difluoromethoxyphenyl)-2-methylpropyl ether]			90	> 500	100	100	100	100				
Cc1ccc(C(C)(C)COCc2cccc(Oc3ccc(Br)cc3)c2)cc1 [Compound 33, 3-(4-Bromophenoxy)benzyl 2-(4-methylphenyl)-2-methylpropyl ether]	90	100	95	> 500	100	100	100	100	> 10	90	100	
CCOc1ccc(C(C)(C)COCc2cccc(Oc3ccccc3)c2)cc1C [Compound 90, 3-Phenoxybenzyl 2-(4-ethoxy-3-methylphenyl)-2-methylpropyl ether]	100	100	100	> 500	100	100	100	100		100	100	mortality at 20 ppm (tobacco cutworm [1]; [6]): 90%; mortality at 20 ppm (tobacco cutworm [1]; [7]): 100%; mortality at 100 ppm (tobacco cutworm [1]; [6]): 100%; mortality at 100 ppm (tobacco cutworm [1]; [7]): 100%; mortality at 10 mg/m2 (German cockroach; [11]): 90%; mortality at 50 mg/m2 (German cockroach; [12]): 100%
CC(C)COc1ccc(C(C)(C)COCc2cccc(Oc3ccccc3)c2)cc1 [Compound 64, 3-Phenoxybenzyl 2-(4-isobutyloxyphenyl)-2-methylpropyl ether]	70	100	100	> 500								mortality at 100 ppm (green peach aphid): > 95%
CCOP(=S)(OCC)Oc1ccc(=O)n(-c2ccccc2)n1 [(d), O,O-diethyl-O-(3-oxo-2-phenyl-2H-pyridazin-6-yl)-phosphorothioate, reference compound]												mortality at 20 ppm ([3]; 24 h): 40%; mortality at 100 ppm ([3]; 24 h): 90%; mortality at 20 ppm ([4]; 20 ppm, resistant female adults, 24 hours): 10%; mortality at 100 ppm ([4]; 100 ppm, resistant female adults, 24 hours): 20%; mortality at 10 mg/m2 (German cockroach; 24 h): 50%; mortality at 50 mg/m2 (German cockroach; 24 h): 100%; mortality at 100 ppm (two-spotted spider mite; 24 h): 40%
C#CCOc1ccc(C(C)(C)COCc2cccc(Oc3ccccc3)c2)cc1 [Compound 98, 3-Phenoxybenzyl 2-(4-propargyloxyphenyl)-2-methylpropyl ether]			100	> 500						100	100	
CCOCc1ccc(C(C)(C)COCc2cccc(Oc3ccccc3)c2)cc1 [Compound 82, 3-Phenoxybenzyl 2-(4-ethoxymethylphenyl)-2-methylpropyl ether]			90	> 500	80	100	100	100				
CCC(C)(COCc1cccc(Oc2ccc(Br)cc2)c1)c1ccc(Cl)cc1 (stereo not shown) [Compound 46]	100	100	95	> 500	65	100	80	100	> 10	100	100	mortality at 20 ppm (tobacco cutworm [1]; [6]): 60%; mortality at 20 ppm (tobacco cutworm [1]; [7]): 80%; mortality at 100 ppm (tobacco cutworm [1]; [6]): 80%; mortality at 100 ppm (tobacco cutworm [1]; [7]): 90%
CC(C)(COCc1cccc(Oc2ccccc2)c1)c1ccccc1 [Compound 5, 3-Phenoxybenzyl 2-phenyl-2-methylpropyl ether]			100	> 500	100	100	100	100				mortality at 10 mg/m2 (German cockroach; [11]): 80%; mortality at 50 mg/m2 (German cockroach; [12]): 100%; mortality at 100 ppm (green peach aphid): > 95%
CCCOc1ccc(C(C)(C)COCc2cccc(Oc3ccccc3)c2)cc1 [Compound 57, 3-Phenoxybenzyl 2-[4-(n-propoxy)phenyl]-2-methylpropyl ether]	75	100	90	> 500	100	100	100	100		100	100	mortality at 100 ppm (green peach aphid): > 95%
Cc1ccc(C(C)(C)COCc2cccc(Oc3ccccc3)c2)cc1 [Compound 47, 3-Phenoxybenzyl 2-(4-methylphenyl)-2-methylpropyl ether]			100	> 500	100	100	100	100	> 10	90	100	mortality at 10 mg/m2 (German cockroach; [11]): 90%; mortality at 50 mg/m2 (German cockroach; [12]): 100%
